Assay results published in patent publication US9073879B2, “Oxazole derivatives useful as modulators of FAAH” (MERCK SHARP & DOHME CORP., priority 2010, dated 2015).
pIC50: −log10 of the molar value.

Legend:
[1] = biological target: T1, human FAAH (Homo sapiens, UniProt O00519); experiment: FAAH cell lysate assay (human lysate, FAAH_CHO, AAMCA substrate); type: biochemical; details: lysate of CHO cells expressing human FAAH; read-out: human lysate_IC50
T1 construct: The full length FAAH was subcloned into the mammalian expression vector, pcDEF.neo, using XbaI and EcoRI restriction sites; expressed in transfected cells
T1 sequence (O00519 1-579): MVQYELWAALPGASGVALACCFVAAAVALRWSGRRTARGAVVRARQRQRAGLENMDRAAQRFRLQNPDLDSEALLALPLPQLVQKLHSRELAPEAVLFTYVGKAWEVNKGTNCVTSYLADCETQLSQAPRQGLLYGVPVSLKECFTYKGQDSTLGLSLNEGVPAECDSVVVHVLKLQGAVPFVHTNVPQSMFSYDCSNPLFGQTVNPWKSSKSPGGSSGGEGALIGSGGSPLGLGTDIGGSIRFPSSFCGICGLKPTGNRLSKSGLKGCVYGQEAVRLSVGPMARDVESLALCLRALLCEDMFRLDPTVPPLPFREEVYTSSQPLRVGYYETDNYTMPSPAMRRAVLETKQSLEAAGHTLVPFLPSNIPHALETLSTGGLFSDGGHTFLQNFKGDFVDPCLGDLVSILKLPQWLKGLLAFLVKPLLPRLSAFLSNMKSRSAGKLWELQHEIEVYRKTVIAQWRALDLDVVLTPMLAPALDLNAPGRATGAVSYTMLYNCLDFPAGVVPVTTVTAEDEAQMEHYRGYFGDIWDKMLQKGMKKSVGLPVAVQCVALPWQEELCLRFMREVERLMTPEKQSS
Description: (§1) To assist in assay development stable cell lines for human, murine and rat full length FAAH were developed. Human FAAH cDNA (Accession No: NM_001441.1) was purchased from Origene (Rockville, Md.). The full length FAAH was subcloned into the mammalian expression vector, pcDEF.neo, using XbaI and EcoRI restriction sites and used for stable cell line generation.
CHO cells expressing FAAH were used to prepare either crude cell lysate or microsome fractions. To harvest cells, tissue culture media was decanted, the monolayer washed three times with Ca^++Mg^++ free PBS and cells recovered after 15 mm in enzyme free dissociation media (Millipore Corp, Billerica, Mass.). Cells were collected by centrifuging at 2000 rpm for 15 min. and the cell pellet re-suspended with 50 mM HEPES (pH 7.4) containing 1 mM EDTA and the protease inhibitors aprotinin (1 mg/ml) and leupeptin (100 μM). The suspension was sonicated at 4° C. and the cell lysate recovered after centrifuging at 12,000×g (14,600 rpm, SS34 rotor) for 20 min at 4° C. to form a crude pellet of cell debris, nuclei, peroxisomes, lysosomes, and mitochondria; the supernatant or cell lysate was used for FAAH enzyme assay. In some cases, microsomes fractions enriched in FAAH were prepared by centrifuging the cell lysate further at 27,000 rpm (100,000×g) in SW28 rotor for 50 minutes at 4° C. The pellet containing FAAH-enriched microsomes was re-suspend in 50 mM HEPES, (pH 7.4) 1 mM EDTA, and any remaining DNA sheared by passage of material through a 23 gauge needle and aliquots of enzyme were store at −80° C. prior to use.
(American Radiolabeled Chemicals; 1 mCi/ml) with FAAH (Life Sciences (1995), 56, 1999-2005 and Journal of Pharmacology and Experimented Therapeutics (1997), 283, 729-734), Analytical. Biochemistry (2003), 318:270-5. In addition, routine assays were performed monitoring hydrolysis of araehidonyl-7-amino-4-methylcoumarin amide (AAMCA) by following increase in fluorescence upon release of 7-amino 4-methyl coumarin (λEX=355 nm, (λEM=460 nm). Analytical. Biochemistry (2005). 343:143-51
(§2) Assays are performed on either cell lysate or microsome fractions prepared as described or in whole cell format employing either the fluorescent substrate AAMCA (Cayman chemical, Ann Arbor, Mich.) or ^3H-anandamide ([ETHANOLAMINE-1-3H] American Radiolabeled Chemicals; 1 mCi/ml). The cell lysate or microsome assay is performed in black PerkinElmer OptiPlates-384F by adding FAAH_CHO (whole cell (shown as human Whole cell or Human WC), cell lysate (shown as human lysate of human LY) or microsome) in assay buffer (50 mM Phosphate, pH 8.0, 1 mM EDTA, 200 mM KCl, 0.2% glycerol, 0.1% fatty acid free BSA) to each well, followed by either DMSO or compound and allowed to incubate at 22-25° C. for fifteen minutes. AAMCA substrate was used to achieve a final concentration of 1 μM and reaction allowed to proceed at room temperature for 1-3 hours. Fluorescent release as a measure of FAAH activity was monitored by reading the plate in an Envision plate Reader (Ex: 360/40 nM; Em: 460/40 nM). Whole cell assay is conducted with cells harvested after rinsing tissue culture flasks three times with Ca^++Mg^++ free PBS, incubating for 10 min in Enzyme free dissociation media and centrifuging for 5 minutes at 1,000 rpm in table top centrifuge. Cells are resuspended in assay buffer at desired cell number in (4×10^4 cells/assay in 96-well format; 1×10^4 cells/assay in 384-well format) and assayed as described.

[2] = biological target: T1, human FAAH; experiment: FAAH whole cell assay (human Whole cell, FAAH_CHO, AAMCA substrate); type: cell-based; details: CHO cells expressing human FAAH, whole cell format; read-out: human cell_IC50
Description: as §1
Murine (accession number NM_010173) and Rat FAAH (accession number NM_024132) was amplified by reverse transcriptase polymerase chain reaction (RT-PCR) from brain cDNA (BD Biosciences, San Jose, Calif.) using primers 1 and 2 or primers 1 and 3 respectively (see Table). The resulting PCR product was ligated into pCR4 TOPO and DNA sequence confirmed. The full length murine FAAH was subcloned into the mammalian expression vector, pcDEFneo using either EcoRI (murine) or KpnI and EcoRI (rat) restriction sites. Chinese hamster ovary cells (CHO) were transfected following manufacturers protocol (AMAXA). Forty eight hours post transfection, cells were trypsinized and transferred to 96 well plates in Iscove's DMEM media supplemented with 2 mM Glutamine, 10% fetal calf serum, 1 mg/ml geneticin and HT Supplement (0.1 mM sodium hypoxanthine, 0.016 mM thymidine) in order to isolate single clones. Following selection in geneticin, individual clones were selected and FAAH activity was assessed using a whole cell fluorescent anandamide assay, modified from Ramarao et al (2005). Following removal of tissue culture media cells were dislodged following addition of Cellstripper (Mediatech, Inc. Manassas, Va.) and transferred to 96 well black clear bottom assay plate, centrifuged at 1,000 rpm for 3 mins and media removed and replaced with assay buffer (50 mM Tris pH8.0, 1 mM EDTA, 0.1% fatty acid free BSA). The reaction was initiated by addition of fluorescent substrate, AMC Arachidonoyl Amide (Cayman Chemical, Ann Arbor, Mich.) to 1 μM and reaction allowed to proceed for 2 hours at room temperature. Release of fluorescence was monitored in a CytoFluor Multiplate Reader. Cells expressing the highest amount of FAAH activity were selected for study with FAAH inhibitors.
as §2

Row | pIC50 [1] | pIC50 [2] | SMILES
1 | 7.21 | 6.41 | CS(=O)(=O)c1ccc(NC(=O)c2nc(-c3ccc(F)cc3)oc2Sc2ccc(Cl)cn2)cc1 [Example A5.1, 5-[(5-chloropyridin-2-yl)sulfanyl]-2-(4-fluorophenyl)-N-[4-(methylsulfonyl)phenyl]-1,3-oxazole-4-carboxamide]
2 | 7.24 | 6.40 | CS(=O)(=O)N1CCC(NC(=O)c2nc(-c3ccc(F)cc3)oc2Sc2ccc(Cl)cn2)CC1 [Example A5.2, 5-[(5-chloropyridin-2-yl)sulfanyl]-2-(4-fluorophenyl)-N-[1-(methylsulfonyl)piperidin-4-yl]-1,3-oxazole-4-carboxamide]
3 | 8.00 | 7.41 | COC(=O)c1ccc(NC(=O)c2nc(-c3ccc(F)cc3)oc2Sc2ccc(Cl)cn2)cc1 [Example A5.3, methyl 4-[({5-[(5-chloropyridin-2-yl)sulfanyl]-2-(4-fluorophenyl)-1,3-oxazol-4-yl}carbonyl)amino]benzoate]
4 | 8.52 | 7.70 | Fc1ccc(-c2nc(COc3ccc4[nH]ncc4c3)c(Sc3ccc(Cl)cn3)o2)cc1 [Example B2.1, 5-({5-[(5-chloropyridin-2-yl)sulfanyl]-2-(4-fluorophenyl)-1,3-oxazol-4-yl}methoxy)-1H-indazole]
5 | 7.26 | 6.29 | CSc1ccc(OCc2nc(-c3ccc(F)cc3)oc2Sc2ccc(Cl)cn2)cc1 [Example B2.2, 5-chloro-2-{[2-(4-fluorophenyl)-4-{[4-(methylsulfanyl)phenoxy]methyl}-1,3-oxazol-5-yl]sulfanyl}pyridine]
6 | 7.27 | 6.27 | CS(=O)(=O)c1ccc(OCc2nc(-c3ccc(F)cc3)oc2Sc2ccc(Cl)cn2)cc1 [Example B2.3, 5-chloro-2-{[2-(4-fluorophenyl)-4-{[4-(methylsulfonyl)phenoxy]methyl}-1,3-oxazol-5-yl]sulfanyl}pyridine]
7 | 7.62 | 6.65 | Fc1ccc(-c2nc(COc3ccc4c(c3)OCO4)c(Sc3ccc(Cl)cn3)o2)cc1 [Example B2.4, 2-({4-[(1,3-benzodioxol-5-yloxy)methyl]-2-(4-fluorophenyl)-1,3-oxazol-5-yl}sulfanyl)-5-chloropyridine]
8 | 7.70 | 6.84 | COC(=O)c1ccc(OCc2nc(-c3ccc(F)cc3)oc2Sc2ccc(Cl)cn2)cn1 [Example B2.5, methyl 5-({5-[(5-chloropyridin-2-yl)sulfanyl]-2-(4-fluorophenyl)-1,3-oxazol-4-yl}methoxy)pyridine-2-carboxylate]
9 | 7.33 | 6.44 | N#Cc1ccc(OCc2nc(-c3ccc(F)cc3)oc2Sc2ccc(Cl)cn2)cc1 [Example B2.6, 4-({5-[(5-chloropyridin-2-yl)sulfanyl]-2-(4-fluorophenyl)-1,3-oxazol-4-yl}methoxy)benzonitrile]
10 | 7.92 | 6.70 | CC(O)c1ccc(OCc2nc(-c3ccc(F)cc3)oc2Sc2ccc(Cl)cn2)cc1 (stereo not drawn) [Example B2.7, 1-[4-({5-[(5-chloropyridin-2-yl)sulfanyl]-2-(4-fluorophenyl)-1,3-oxazol-4-yl}methoxy)phenyl]ethanol]
11 | 6.89 | 6.29 | OC(c1ccc(OCc2nc(-c3ccc(F)cc3)oc2Sc2ccc(Cl)cn2)cc1)C(F)(F)F (stereo not drawn) [Example B2.8, 1-[4-({5-[(5-chloropyridin-2-yl)sulfanyl]-2-(4-fluorophenyl)-1,3-oxazol-4-yl}methoxy)phenyl]-2,2,2-trifluoroethanol]
12 | 8.70 | 8.00 | COC(=O)c1ccc(OCc2nc(-c3ccc(F)cc3)oc2Sc2ccc(Cl)cn2)nc1 [Example B2.9, methyl 6-({5-[(5-chloropyridin-2-yl)sulfanyl]-2-(4-fluorophenyl)-1,3-oxazol-4-yl}methoxy)pyridine-3-carboxylate]
13 | 7.25 | 6.53 | Fc1ccc(-c2nc(COc3ccc4[nH]ccc4c3)c(Sc3ccc(Cl)cn3)o2)cc1 [Example B2.10, 5-({5-[(5-chloropyridin-2-yl)sulfanyl]-2-(4-fluorophenyl)-1,3-oxazol-4-yl}methoxy)-1H-indole]
14 | – | 7.01 | Clc1ccc(Sc2oc(C3CCOCC3)nc2COc2ccc3[nH]ncc3c2)cc1 [Example B2.17, 5-({5-[(4-chlorophenyl)sulfanyl]-2-(tetrahydro-2H-pyran-4-yl)-1,3-oxazol-4-yl}methoxy)-1H-indazole]
15 | – | 7.30 | COC(=O)[C@H]1CC[C@@H](NCc2nc(-c3ccc(F)cc3)oc2Sc2ccc(Cl)cn2)CC1 [Example B5.11, methyl cis-4-[({5-[(5-chloropyridin-2-yl)sulfanyl]-2-(4-fluorophenyl)-1,3-oxazol-4-yl}methyl)amino] cyclohexanecarboxylate]
16 | – | 5.55 | O[C@H]1CC[C@H](NCc2nc(C3CCOCC3)oc2Sc2ccc(Cl)cc2)CC1 [Example B5.13, trans-4-[({5-[(4-chlorophenyl)sulfanyl]-2-(tetrahydro-2H-pyran-4-yl)-1,3-oxazol-4-yl}methyl)amino] cyclohexanol]
17 | – | 7.57 | COC(=O)[C@H]1CC[C@H](NCc2nc(C3CCOCC3)oc2Sc2ccc(Cl)cc2)CC1 [Example B5.14, methyl trans-4-[({5-[(4-chlorophenyl)sulfanyl]-2-(tetrahydro-2H-pyran-4-yl)-1,3-oxazol-4-yl}methyl)amino] cyclohexanecarboxylate]
